# Reference: patent publication US20090227507A1, “Angiotensin (1-7) Dosage Forms and Uses Thereof” (UNIVERSITY OF SOUTHERN CALIFORNIA, priority 2008, published 2009)
# Assays:
# lymphocyte numbers = test: Lymphocyte recovery after subcutaneous TXA127 in subjects without HIV infection (breast cancer subjects receiving chemotherapy); assay type: in vivo; conditions: human subjects without HIV infection (e.g., breast cancer subjects receiving cancer chemotherapy)
# Text: In the absence of effective antiretroviral therapy, HIV disease is characterized by the relentless destruction of CD4+ T-lymphocytes resulting in disordered and declining immune function.
# [1] = Urinalysis with microscopic examination of sediment in healthy men; assay type: in vivo, human; conditions: Subject 011, 200 μg/kg
# Experimental: Laboratory measurements were conducted by a local clinical laboratory.
# (§1) Blood, urobilinogen, ketones, glucose, protein, microscopic examination of sediment, sodium, and potassium.
# [2] = 12-lead electrocardiogram in healthy men; assay type: in vivo, human; conditions: Screening or Study Day 8
# Text: (§2) Safety assessments during the study period included vital sign measurement (systolic [SBP] and diastolic [DBP] blood pressure, heart rate [HR], respiratory rate [RR] in the sitting position, and oral temperature), clinical chemistry, hematology, urinalysis, 12-lead electrocardiogram (ECG) in the supine position, and AE monitoring. Clinical chemistry/hematology samples were drawn within a 30-minute period prior to dosing on selected dosing days.
# [3] = Renal laboratory values (serum creatinine, creatinine clearance, 24-hour urine) in healthy men; conditions: human, in vivo
# Experimental: USB003 was administered SC in the abdomen by a qualified study staff member 24 hours after the previous (Day 6) injection.
# as §1
# [4] = Vital signs (blood pressure, pulse rate, respiration rate, oral temperature) in healthy men; assay type: in vivo, human; conditions: for oral body temperature, Subject 042 / oral body temperature, Subject 046 / oral body temperature, Subject 053 / oral body temperature, Subject 055: 300 μg/kg
# Experimental: as §2
# Vital signs were measured immediately prior to dosing, every hour for the first 6 hours post-dosing, then every 3 hours up to 12 hours post-dosing.
# Vital signs, including SBP, DBP, RR, and HR were done at Screening, on each day immediately before and at 1, 3, and 6 hours after each SC injection, and at 24 hours after the last injection on Day 7. On Day 1, they were taken every hour for the first 6 hours, then every 3 hours up to 12 hours after the dose.
# [5] = system: CD34+ cells in peripheral blood; test: Flow cytometry of peripheral blood, CD34+ progenitor cells; USB003 SC once daily for 7 days in healthy men; assay type: in vivo, human; set-up: key to Subjects with shift, Absolute CD34, N-L (normal to low) / Subjects with shift, Absolute CD34, N-H (normal to high) / Subjects with shift, Absolute CD34, L-N (low to normal) / Subjects with shift, Absolute CD34, H-N (high to normal): — signifies subject with no shift from baseline; conditions: for CD34^+, Absolute, Mean at Baseline: Baseline (Day 1)
# Experimental: • Single-center, randomized, double-blind, placebo-controlled, 2 cohort dose-escalation trial of once daily dosing over a 7-day period (7 doses total): • Cohort 1: 2 subjects treated with placebo and 8 subjects treated with 200 μg/kg USB003 (A(1-7)) • Cohort 2: 2 subjects treated with placebo and 8 subjects treated with 300 μg/kg USB003 • For each cohort, there was a Screening Period, Treatment Phase, Follow-up Period, and Study Termination or Early Withdrawal Day. Subjects were confined to the study unit during the Treatment Phase. • Cohort 2 was treated approximately 1 week after completion of the Treatment Phase for Cohort 1 to allow time for the assessment of safety and tolerability in the first cohort.
# Pharmacological Effect: The following evaluations (under efficacy and safety in the protocol) were performed: • Effects on the number of mature blood cells: • 1. CBC (with differential), platelet count, reticulocyte count. • Effects on early hematopoietic progenitor cells and mature lymphocyte subsets in the periphery: • 1. Flow cytometry to evaluate frequency of peripheral blood progenitor cells (eg, CD34^+) and lymphocyte subsets (eg, CD3, CD4, CD8) in peripheral blood. • 2. Collection of blood for later possible culture for progenitor cells (eg, colony forming units-granulocyte/macrophage [CFU-GM]) to evaluate potential effects on CD34^+ hematopoietic progenitor cells in peripheral blood. • 3.
# The effect of USB003 on the number of mature blood cells was assessed by the complete blood count with differential, platelet and reticulocyte counts. The effects on early hematopoietic progenitor cells and mature lymphocyte subsets in the periphery were assessed by flow cytometry. In addition, blood was collected and processed to enable culture of progenitors at a later time.
# Red blood cell (RBC) count, RBC indices, white blood cell count (WBC) with differential, reticulocyte count, platelet count, hemoglobin (Hb), hematocrit (Hct), plasma hemoglobin, peripheral flow cytometry, including CD34^+, flow cytometry for enumeration of CD3, CD4, and CD8 lymphocytes, and culture for progenitor cells in peripheral blood including colony-forming units-granulocyte/macrophage (CFU-GM).
# [6] = approximately 6 hours after Day 3 study medication
substance,measurement,setting,value
Asp-Arg-Val-Tyr-Ile-His-Pro [USB003],lymphocyte numbers following subcutaneous injection,lymphocyte numbers,dramatic recovery of lymphocyte numbers
same,Urine Glucose High/Low Normal/Abnormal,[1]; Day 1,Abnormal
same,Urine Glucose Significance,[1]; Day 1,CS AE
same,Urine Glucose Value,[1]; Day 1,+1
same,Urine Glucose High/Low Normal/Abnormal,[1]; Day 3,N
same,Urine Glucose Value,[1]; Day 3,neg
same,12-lead ECG findings,[2],no abnormal CS 12-lead ECGs findings
same,"Creatinine Clearance shift L-N, number of subjects",[3]; 200 ug/kg,3
same,creatinine clearance,[3]; 200 ug/kg,increase
same,subjects with creatinine clearance shifted from low to normal,[3]; 200 ug/kg,3 of the 9
same,"Creatinine Clearance shift L-N, number of subjects",[3]; 300 ug/kg,2
same,"Creatinine Clearance shift N-L, number of subjects",[3]; 300 ug/kg,1
same,increase in creatinine clearance,[3]; 300 ug/kg,not observed
same,subjects with creatinine clearance shifted from low to normal,[3]; 300 ug/kg,2 of the 8
same,change from baseline in mean body temperatures,"[4]; 300 μg/kg dose group compared to 200 μg/kg, especially 6-hour post-dose, Study Day 3",clearly notable increase
same,"oral body temperature, Subject 042","[4]; Day 1, 4-hour post-dose",37.8 °C
same,"oral body temperature, Subject 042","[4]; Day 1, 9-hour post-dose",38.1 °C
same,"oral body temperature, Subject 042","[4]; Day 1, one hour after first dose",37.4 °C
same,"oral body temperature, Subject 042","[4]; Day 2, 6-hour-post-dose",38.7 °C
same,"oral body temperature, Subject 042",[4]; Day 2 pre-dose,37.4 °C
same,"oral body temperature, Subject 046",[4]; Day 2 pre-dose,35.9 °C
same,"oral body temperature, Subject 046","[4]; Day 3, 6-hour post-dose",37.9 °C
same,"oral body temperature, Subject 046",[4]; Day 4 pre-dose,36.8 °C
same,"oral body temperature, Subject 053",[4]; Day 4 pre-dose,36.4 °C
same,"oral body temperature, Subject 055",[4]; Day 4 pre-dose,37.1 °C
same,"oral body temperature, Subject 053",[4]; Day 7 pre-dose,37.0 °C
same,"oral body temperature, Subject 042",[4]; Day 8,36.9 °C
same,"oral body temperature, Subject 053",[4]; [6],37.8 °C
same,"oral body temperature, Subject 055",[4]; [6],38.0 °C
same,"oral body temperature, Subject 053",[4]; approximately 6 hours after Day 6 study medication,37.9 °C
same,"oral body temperature, Subject 046",[4]; approximately 7 hours and 45 minutes after first dosing,37.8 °C
same,"oral body temperature, Subject 046",[4]; approximately 14 hours after the first dose,38.0 °C
same,"oral body temperature, Subject 046",[4]; one hour after first dose,37.3 °C
same,changes from baseline for the mean RR,[4]; all measured time points,no clinically meaningful changes
same,mean change in pulse rate,"[4]; by 3-hour post-dose in all treatment groups, continuing in the USB003 groups at last vital sign of the day",mildly notable increase
same,change in mean SBP and DBP compared to baseline,[4]; no apparent difference in dose groups,mild decrease
same,"CD34^+, Absolute, Mean at Baseline",[5]; 200 μg/kg,2.50 cells/μL
same,"Subjects with shift, Absolute CD34, H-N (high to normal)","[5]; 200 μg/kg, Baseline to Day 8",—
same,"Subjects with shift, Absolute CD34, L-N (low to normal)","[5]; 200 μg/kg, Baseline to Day 8",—
same,"Subjects with shift, Absolute CD34, N-H (normal to high)","[5]; 200 μg/kg, Baseline to Day 8",—
same,"Subjects with shift, Absolute CD34, N-L (normal to low)","[5]; 200 μg/kg, Baseline to Day 8",—
same,"Subjects with shift, Absolute CD34, H-N (high to normal)","[5]; 200 μg/kg, Baseline to Day 20",—
same,"Subjects with shift, Absolute CD34, L-N (low to normal)","[5]; 200 μg/kg, Baseline to Day 20",—
same,"Subjects with shift, Absolute CD34, N-H (normal to high)","[5]; 200 μg/kg, Baseline to Day 20",—
same,"Subjects with shift, Absolute CD34, N-L (normal to low)","[5]; 200 μg/kg, Baseline to Day 20",—
same,"CD34^+, Absolute, Mean Change from Baseline","[5]; 200 μg/kg, Day 3",0.23 cells/μL
same,"CD34^+, Absolute, Mean Change from Baseline","[5]; 200 μg/kg, Day 5",0.61 cells/μL
same,"CD34^+, Absolute, Mean Change from Baseline","[5]; 200 μg/kg, Day 7",1.11 cells/μL
same,"CD34^+, Absolute, Mean Change from Baseline","[5]; 200 μg/kg, Day 8",0.33 cells/μL
same,"CD34^+, Absolute, Mean Change from Baseline","[5]; 200 μg/kg, Day 11",0.13 cells/μL
same,"CD34^+, Absolute, Mean Change from Baseline","[5]; 200 μg/kg, Day 14",0.61 cells/μL
same,"CD34^+, Absolute, Mean Change from Baseline","[5]; 200 μg/kg, Day 17",−0.40 cells/μL
same,"CD34^+, Absolute, Mean Change from Baseline","[5]; 200 μg/kg, Day 20",−0.46 cells/μL
same,"CD34^+, Absolute, Mean at Baseline",[5]; 300 μg/kg,2.55 cells/μL
same,"Subjects with shift, Absolute CD34, H-N (high to normal)","[5]; 300 μg/kg, Baseline to Day 8",—
same,"Subjects with shift, Absolute CD34, L-N (low to normal)","[5]; 300 μg/kg, Baseline to Day 8",—
same,"Subjects with shift, Absolute CD34, N-H (normal to high)","[5]; 300 μg/kg, Baseline to Day 8",—
same,"Subjects with shift, Absolute CD34, N-L (normal to low)","[5]; 300 μg/kg, Baseline to Day 8",—
same,"Subjects with shift, Absolute CD34, H-N (high to normal)","[5]; 300 μg/kg, Baseline to Day 20",—
same,"Subjects with shift, Absolute CD34, L-N (low to normal)","[5]; 300 μg/kg, Baseline to Day 20",—
same,"Subjects with shift, Absolute CD34, N-H (normal to high)","[5]; 300 μg/kg, Baseline to Day 20",—
same,"Subjects with shift, Absolute CD34, N-L (normal to low)","[5]; 300 μg/kg, Baseline to Day 20",—
same,"CD34^+, Absolute, Mean Change from Baseline","[5]; 300 μg/kg, Day 3",1.80 cells/μL
same,"CD34^+, Absolute, Mean Change from Baseline","[5]; 300 μg/kg, Day 5",0.56 cells/μL
same,"CD34^+, Absolute, Mean Change from Baseline","[5]; 300 μg/kg, Day 7",−0.01 cells/μL
same,"CD34^+, Absolute, Mean Change from Baseline","[5]; 300 μg/kg, Day 8",0.88 cells/μL
same,"CD34^+, Absolute, Mean Change from Baseline","[5]; 300 μg/kg, Day 11",−0.74 cells/μL
same,"CD34^+, Absolute, Mean Change from Baseline","[5]; 300 μg/kg, Day 14",−0.41 cells/μL
same,"CD34^+, Absolute, Mean Change from Baseline","[5]; 300 μg/kg, Day 17",−0.31 cells/μL
same,"CD34^+, Absolute, Mean Change from Baseline","[5]; 300 μg/kg, Day 20",−0.35 cells/μL
same,change in the number of CD34+ cells in the peripheral blood,"[5]; last day of treatment, not observed 12 days after administration",dose-related change
